EP0326331B1, “Substituted quinolines and cinnolines” (Dow AgroSciences LLC, priority 1988, dated 1989)

Experiments:
Type in all cases: in vivo
[1] = system: Septoria tritici (leaf blotch); assay: Test 1 greenhouse foliar spray screen, leaf blotch on wheat; conditions: disease control rating, foliar spray on wheat, 400 ppm (+++ at 100 ppm)
[2] = system: Cercospora beticola (leaf spot); assay: Test 1 greenhouse foliar spray screen, leaf spot on sugar beet; conditions: disease control rating, foliar spray on sugar beet, 400 ppm (+++ at 100 ppm)
[3] = system: corn rootworm; assay: Mite/insect screen, CRW; conditions: percent mortality; for mortality at 12 ppm / mortality at 24 ppm: read-out: CRW RESULTS %; for mortality at 24 ppm: CRW RATE 24.00 PPM
Procedure, shortened: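 Compounds were dissolved in 50:50 acetone/alcohol containing sulfonate/nonionic emulsifier blends (23 g/L plus 13 g/L), then diluted with water to the test concentrations. Percent mortality was scored after standard exposure periods.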

[4] = system: Twospotted spider mites (Tetranychus urticae Koch); assay: Mite/insect screen, SM; conditions: percent mortality, SAW; for mortality at 200 ppm / mortality at 400 ppm: Tetranychus urticae, read-out: SM RESULTS %; for mortality at 400 ppm: SM & MA RATE 400 PPM
Procedure, shortened: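 Activity is expressed as percent mortality at the indicated spray concentrations. Plants are sprayed to runoff on upper and lower leaf surfaces with aqueous dilutions of an acetone/alcohol emulsifiable formulation, then dried for one hour.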

[5] = system: Pyricularia oryzae (rice blast); assay: whole plant or invertebrate; conditions: disease control rating, foliar spray on rice, 400 ppm (+++ at 100 ppm)
[6] = system: Botrytis cinerea (gray mold); assay: Test 1 greenhouse foliar spray screen, gray mold on grape berries; conditions: disease control rating, spray on grape berries, 400 ppm (+++ at 100 ppm)
[7] = system: melon aphids (Aphis gossypii Glover); assay: Mite/insect screen, MA; conditions: percent mortality, SAW; for mortality at 200 ppm / mortality at 400 ppm: Aphis gossypii, read-out: MA RESULTS %; for mortality at 400 ppm: SM & MA RATE 400 PPM
Procedure, shortened: (§1)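 Compounds dissolved in 50:50 acetone/alcohol containing sulfonate/nonionic emulsifier blends, then diluted with water to the indicated concentrations. Leaves sprayed on both surfaces to runoff at 10 psi and dried one hour. Percent mortality scored after standard exposure periods.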

[8] = system: Puccinia recondita tritici (leaf rust); assay: Test 1 greenhouse foliar spray screen, leaf rust on wheat; conditions: disease control rating, foliar spray on wheat, 400 ppm (+++ at 100 ppm)
[9] = system: Erysiphe graminis tritici (powdery mildew); assay: Test 1 greenhouse foliar spray screen, powdery mildew on wheat; conditions: disease control rating, foliar spray on wheat, 400 ppm (+++ at 100 ppm)
[10] = system: southern armyworm (Spodopetra eridania Cramer); assay: Mite/insect screen, SAW; conditions: percent mortality, SAW; for mortality at 200 ppm / mortality at 400 ppm: Spodoptera eridania, read-out: SAW RESULTS %; for mortality at 400 ppm: SM & MA RATE 400 PPM
Procedure, shortened: as §1

[11] = system: Pseudoperonospora cubensis (downy mildew); assay: Test 1 greenhouse foliar spray screen, downy mildew on squash; conditions: disease control rating, foliar spray on squash, 400 ppm (+++ at 100 ppm)
[12] = system: Venturia inaequalis (apple scab); assay: Test 1 greenhouse foliar spray screen, apple scab on apple seedling; conditions: disease control rating, foliar spray on apple seedling, 400 ppm (+++ at 100 ppm)

| SMILES | LEAF BLOT [1] | LEAF SPOT [2] | mortality at 12 ppm ([3]; CRW RATE 12.00 PPM) | mortality at 200 ppm ([4]; SM & MA RATE 200 PPM) | RICE BLAST [5] | GRAY MOLD [6] | mortality at 200 ppm ([7]; SM & MA RATE 200 PPM) | LEAF RUST [8] | POWD MDEW [9] | mortality at 200 ppm ([10]; SM & MA RATE 200 PPM) | DOWN MDEW [11] | APPL SCAB [12] | CRW RESULTS % ([3]; CRW RATE 12.00 PPM) | SM RESULTS % ([4]; SM & MA RATE 200 PPM) | MA RESULTS % ([7]; SM & MA RATE 200 PPM) | SAW RESULTS % ([10]; SM & MA RATE 200 PPM) | mortality at 24 ppm [3] | mortality at 400 ppm [4] | mortality at 400 ppm [7] | mortality at 400 ppm [10] |
| --- | --- | --- | --- | --- | --- | --- | --- | --- | --- | --- | --- | --- | --- | --- | --- | --- | --- | --- | --- | --- |
| Fc1cccc2c(NCCc3ccccc3)cc(Cl)nc12 [Example 116, 2-chloro-8-fluoro-N-(2-phenylethyl)-4-quinolinamine] | - (0-19% control at 400 ppm) | + (20-89% control at 400 ppm) | 0% | 0% | + (20-89% control at 400 ppm) | - (0-19% control at 400 ppm) | 0% | +++ (90-100% control at 100 ppm) | - (0-19% control at 400 ppm) | 0% | +++ (90-100% control at 100 ppm) | + (20-89% control at 400 ppm) |  |  |  |  |  |  |  |  |
| O=[N+]([O-])c1ccc(CCNc2ccnc3c(F)cccc23)cc1 [Example 117, 8-fluoro-N-[2-(4-nitrophenyl)ethyl]-4-quinolinamine] | - (0-19% control at 400 ppm) | + (20-89% control at 400 ppm) | 0% | 0% | + (20-89% control at 400 ppm) | - (0-19% control at 400 ppm) | 0% | + (20-89% control at 400 ppm) | + (20-89% control at 400 ppm) | 0% | +++ (90-100% control at 100 ppm) | - (0-19% control at 400 ppm) | 0% | 0% | 0% | 0% |  |  |  |  |
| Fc1cccc2c(NCCc3c(Cl)cccc3Cl)ccnc12 [Example 118, N-[2-(2,6-dichlorophenyl)ethyl]-8-fluoro-4-quinolinamine] | - (0-19% control at 400 ppm) | - (0-19% control at 400 ppm) | 0% | 0% | + (20-89% control at 400 ppm) | - (0-19% control at 400 ppm) | 0% | - (0-19% control at 400 ppm) | - (0-19% control at 400 ppm) | 0% | - (0-19% control at 400 ppm) | - (0-19% control at 400 ppm) |  |  |  |  |  |  |  |  |
| COc1cc(CCNc2ccnc3c(F)cccc23)cc(OC)c1 [Example 119, N-[2-(3,5-dimethoxyphenyl)ethyl]-8-fluoro-4-quinolinamine] | + (20-89% control at 400 ppm) | - (0-19% control at 400 ppm) | 0% | 0% | + (20-89% control at 400 ppm) | - (0-19% control at 400 ppm) | 0% | + (20-89% control at 400 ppm) | + (20-89% control at 400 ppm) | 0% | ++ (90-100% control at 400 ppm) | + (20-89% control at 400 ppm) |  |  |  |  |  |  |  |  |
| c1ccc(C2CC2Nc2ccnc3ccccc23)cc1 (centres unmarked) [Example 120, N-(2-phenylcyclopropyl)-4-quinolinamine] | - (0-19% control at 400 ppm) | +++ (90-100% control at 100 ppm) | 0% | 0% | + (20-89% control at 400 ppm) | - (0-19% control at 400 ppm) | 0% | + (20-89% control at 400 ppm) | - (0-19% control at 400 ppm) | 0% | ++ (90-100% control at 400 ppm) | - (0-19% control at 400 ppm) |  |  |  |  |  |  |  |  |
| CC(=O)N(CCc1ccc(C)cc1)c1ccnc2ccc(C)cc12 [Example 122, N-[2-(4-methylphenyl)ethyl]-N-(6-methyl-4-quinolinyl)acetamide] | - (0-19% control at 400 ppm) | - (0-19% control at 400 ppm) | 0% | 0% | ++ (90-100% control at 400 ppm) | - (0-19% control at 400 ppm) | 0% | + (20-89% control at 400 ppm) | - (0-19% control at 400 ppm) | 0% | ++ (90-100% control at 400 ppm) | - (0-19% control at 400 ppm) |  |  |  |  | 0% | 0% | 0% | 0% |
| Fc1cccc2c(NC3CC3c3ccccc3)ccnc12 (centres unmarked) [Example 123, 8-fluoro-N-(2-phenylcyclopropyl)-4-quinolinamine] | - (0-19% control at 400 ppm) | - (0-19% control at 400 ppm) | 0% | 0% | + (20-89% control at 400 ppm) | - (0-19% control at 400 ppm) | 0% | + (20-89% control at 400 ppm) | - (0-19% control at 400 ppm) | 0% | +++ (90-100% control at 100 ppm) | - (0-19% control at 400 ppm) |  |  |  |  |  |  |  |  |
| CC(=O)N(CCc1ccc(Cl)cc1)c1ccnc2cc(Cl)ccc12 [Example 124, N-[2-(4-chlorophenyl)ethyl]-N-(7-chloro-4-quinolinyl)acetamide] | - (0-19% control at 400 ppm) | - (0-19% control at 400 ppm) | 0% | 0% | + (20-89% control at 400 ppm) | - (0-19% control at 400 ppm) | 0% | + (20-89% control at 400 ppm) | +++ (90-100% control at 100 ppm) | 0% | - (0-19% control at 400 ppm) | - (0-19% control at 400 ppm) |  |  |  |  | 0% | 0% | 0% | 0% |
| CC(=O)N(CCc1cccc(C(F)(F)F)c1)c1ccnc2cc(Cl)ccc12 [Example 126, N-(7-chloro-4-quinolinyl)-N-[2-[3-(trifluoromethyl)phenyl]ethyl]acetamide] | + (20-89% control at 400 ppm) | - (0-19% control at 400 ppm) | 0% | 0% | +++ (90-100% control at 100 ppm) | - (0-19% control at 400 ppm) | 0% | + (20-89% control at 400 ppm) | ++ (90-100% control at 400 ppm) | 0% | + (20-89% control at 400 ppm) | - (0-19% control at 400 ppm) |  |  |  |  | 0% | 0% | 0% | 0% |
| CC(=O)N(CCc1ccc(C(C)C)cc1)c1ccnc2c(F)cccc12 [Example 129, N-[2-[4-(i-propyl)phenyl]ethyl]-N-(8-fluoro-4-quinolinyl)acetamide] | - (0-19% control at 400 ppm) | - (0-19% control at 400 ppm) | 0% | 0% | + (20-89% control at 400 ppm) | - (0-19% control at 400 ppm) | 0% | ++ (90-100% control at 400 ppm) | - (0-19% control at 400 ppm) | 0% | + (20-89% control at 400 ppm) | + (20-89% control at 400 ppm) |  |  |  |  | 0% | 0% | 0% | 0% |
